Structures can show the parent of a compound that is named as a salt.

In the RepoRT retention time repository one finds LC retention time data, which are given here for 52 molecules.

This series in a line: RP, Waters ACQUITY UPLC HSS T3, 150 × 2.1 mm, 1.8 µm, 45 °C, 0.6 mL/min, estimated dead time 0.55 min; A: water + 0.1% formic acid, pH 3; B: acetonitrile + 0.1% formic acid, pH 3; gradient (min/%B) 0/1 0.1/1 10/55 10.15/65 10.30/75 10.45/85 10.60/95 10.70/100 11/100 11.55/100 11.65/1 11.70/1 11.80/1 11.90/1 12/1 12.10/1 12.15/1 12.65/1. To be noted: stereoisomer not certain.
Regarding `O=C1CCC(C(=O)O)N1` (configuration not stated) [Pyroglutamic acid], the LC retention time is 1.25 min.

Take `CC(CO)C(=O)O` (configuration not stated) [3-Hydroxyisobutyric acid]: the LC retention time is 1.59 min.

As to `Cn1c(=O)[nH]c(=O)c2c1[nH]c(=O)n2C` [3,7-Dimethyluric acid], the LC retention time was 1.94 min.

As for `Nc1c(C(=O)NC(CC(=O)O)C(=O)O)ncn1C1OC(CO)C(O)C1O` (configuration not stated) [Succinylaminoimidazole carboxamide riboside], the LC retention time was 1.65 min.

On to `CC(=O)Nc1ccc(OC2OC(C(=O)O)C(O)C(O)C2O)cc1` (configuration not stated) [Acetaminophen glucuronide], for which the LC retention time is 1.92 min.

Regarding `CC(CCC(=O)NCC(=O)O)C1CCC2C3CCC4CC(O)CCC4(C)C3CC(O)C12C` (configuration not stated) [Glycodeoxycholic acid], the LC retention time was 10.1 min.

On to `CC(CC(=O)O)CC(=O)O` [3-Methylglutaric acid], for which the LC retention time is 2.66 min.

Take `CC12CCC3C(CC=C4CC(OS(=O)(=O)O)CCC43C)C1CCC2=O` (configuration not stated) [Dehydroepiandrosterone sulfate]: the LC retention time is 7.92 min.

In the case of `Cn1c(=O)c2[nH]cnc2n(C)c1=O` [Theophylline], the LC retention time is 2.76 min.

As to `O=C(O)C(O)Cc1ccccc1` (configuration not stated) [Phenyllactic acid], the LC retention time was 4.51 min.

Turning to `O=C(O)/C=C/c1cccc(O)c1` [m-Coumaric acid], the LC retention time is 4.88 min.

For the molecule `O=C(O)C(O)Cc1c[nH]c2ccccc12` (configuration not stated) [Indolelactic acid], the LC retention time is 4.86 min.

As to `O=C(O)CNC(=O)c1ccccc1O` [Salicyluric acid], the LC retention time was 4.39 min.

As to `CC(C)CC(=O)NCC(=O)O` [N-Isovaleroylglycine], the LC retention time was 3.07 min.

On to `O=C(O)Cc1ccccc1O` [2-Hydroxyphenylacetic acid], for which the LC retention time was 4.11 min.

On to `O=S(=O)(O)Oc1ccccc1` [Phenol sulfate], for which the LC retention time is 3.01 min.

Consider `O=C(O)Cc1ccc(O)cc1` [4-Hydroxyphenylacetic acid], for which the LC retention time was 3.41 min.

For the molecule `O=C(O)c1c(O)cccc1O` [2,6-Dihydroxybenzoic acid], the LC retention time was 3.76 min.

On to `NC(Cc1ccccc1)C(=O)O` (configuration not stated) [Phenylalanine], for which the LC retention time is 2.05 min.

Regarding `O=C(O)CC(C(=O)O)C(O)C(=O)O` (configuration not stated) [Isocitric acid], the LC retention time was 0.77 min.

As to `CC(C)(O)CC(=O)O` [3-Hydroxyisovaleric acid], the LC retention time was 2.1 min.

Consider `CC(CCC(=O)O)C1CCC2C3C(=O)CC4CC(O)CCC4(C)C3CC(O)C12C` (configuration not stated) [7-Ketodeoxycholic acid], for which the LC retention time is 8.65 min.

On to `O=C(O)CC(O)C(=O)O` (configuration not stated) [Malic acid], for which the LC retention time was 0.752 min.

For the molecule `O=C(O)CCC(=O)O` [Succinic acid], the LC retention time was 1.37 min.

Regarding `O=C(O)CCCCCC(=O)O` [Pimelic acid], the LC retention time is 3.46 min.

Regarding `CC(CCC(=O)O)C(=O)O` (configuration not stated) [2-Methylglutaric acid], the LC retention time was 2.8 min.

Turning to `Cc1ccc(C(C)C)c(OS(=O)(=O)O)c1` [Thymol Sulfate], the LC retention time was 7.37 min.

With `O=c1[nH]c(=O)c2[nH]c(=O)[nH]c2[nH]1` [Uric acid], the LC retention time was 1.12 min.

In the case of `CC(CCC(=O)O)C1CCC2C3CCC4CC(O)CCC4(C)C3CC(O)C12C` (configuration not stated) [Deoxycholic acid], the LC retention time is 10.9 min.

For `O=C(O)C(O)c1ccc(O)cc1` (configuration not stated) [p-Hydroxymandelic acid], the LC retention time was 1.57 min.

For the molecule `CC(C)CC(=O)C(=O)O` [Ketoleucine], the LC retention time is 3.52 min.

For `CCC(C)C(NC(C)=O)C(=O)O` (configuration not stated) [N-Acetylisoleucine], the LC retention time was 4.03 min.

For the molecule `CC(=CC(=O)O)C(=O)O` [Citraconic acid], the LC retention time was 1.73 min.

Consider `O=C(O)C=C(CC(=O)O)C(=O)O` [Cis-aconitic acid], for which the LC retention time is 1.3 min.

As to `OCC1OC(OC2(CO)OC(CO)C(O)C2O)C(O)C(O)C1O` (configuration not stated) [Sucrose], the LC retention time was 0.68 min.

In the case of `O=C(O)c1cc(O)cc(O)c1` [3,5-Dihydroxybenzoic acid], the LC retention time is 2.35 min.

As for `O=C(O)CC(CC(=O)O)C(=O)O` [1,2,3-Propanetricarboxylic acid], the LC retention time is 1.38 min.

Regarding `CC(=O)Nc1ccc(OS(=O)(=O)O)cc1` [Acetaminophen sulfate], the LC retention time was 2.26 min.

Regarding `CC(C)C(O)C(=O)O` (configuration not stated) [2-Hydroxy-3-methylbutyric acid], the LC retention time was 2.74 min.

On to `O=C(O)CC(O)(CC(=O)O)C(=O)O` [Citric acid], for which the LC retention time was 1.12 min.

For `CC(CCC(=O)NCC(=O)O)C1CCC2C3CCC4CC(OS(=O)(=O)O)CCC4(C)C3CCC12C` (configuration not stated) [Glycolithocholic acid-3-sulfate], the LC retention time is 10.2 min.

For the molecule `CC(CC(=O)O)C1CCC2C3C(O)CC4CC(O)CCC4(C)C3CC(O)C12C` (configuration not stated) [23-Norcholic acid], the LC retention time was 8.58 min.

For `CC(CCC(=O)NCC(=O)O)C1CCC2C3C(O)CC4CC(O)CCC4(C)C3CC(O)C12C` (configuration not stated) [Glycocholic acid], the LC retention time is 8.4 min.

With `O=C(O)c1cc(O)ccc1O` [2,5-Dihydroxybenzoic acid], the LC retention time is 3.16 min.

`O=c1ccn(C2OC(CO)C(O)C2O)c(=O)[nH]1` (configuration not stated) [Uridine]: the LC retention time is 1.38 min.

For the molecule `CC(=O)NCCC(=O)NC(Cc1cnc[nH]1)C(=O)O` [N-Acetyl-L-carnosine], the LC retention time is 0.92 min.

As to `CC(O)C1CCC2C3CCC4CC(OC5OC(C(=O)O)C(O)C(O)C5O)CCC4(C)C3CCC12C` (configuration not stated) [Pregnanediol-3-glucuronide], the LC retention time is 9.23 min.

As for `O=c1[nH]c(=O)c2ncn(C3OC(CO)C(O)C3O)c2[nH]1` (configuration not stated) [Xanthosine], the LC retention time was 1.83 min.

On to `CC(=O)NC(CC(=O)O)C(=O)O` (configuration not stated) [N-Acetylaspartic acid], for which the LC retention time is 1 min.

On to `O=S(=O)(O)Oc1ccc2[nH]ccc2c1` [5-Hydroxyindole sulfate], for which the LC retention time is 2.81 min.

As to `CCCc1oc(CCC(=O)O)c(C(=O)O)c1C` [3-Carboxy-4-methyl-5-propyl-2-furanpropionic acid (CMPF)], the LC retention time was 8.1 min.

For the molecule `CC(=O)NC(CCCN=C(N)N)C(=O)O` [Na-Acetyl-L-arginine], the LC retention time was 0.91 min.
